In patent publication US20260345649A1, “PHARMACEUTICAL COMPOSITION FOR DESTRUCTION OF TUMOR BLOOD VESSELS” (SAMSUNG MEDICAL FOUNDATION, priority 2022, published 2026):

Columns and labels:
[1] = tested on: HUVECs; experiment: LDH release assay in HUVECs; type: cell-based, human; details: 1 mM, 5 mM, and 10 mM 5-FU, time-dependent, P<0.05, FIG. 4
Procedure: It has been generally reported that an increase in the expression of thrombospondin-1 (TSP-1) and thrombospondin-2 (TSP-2) induces apoptosis in endothelial cells. To investigate whether the administration of 5-fluorouracil (5-FU) enhances apoptosis in endothelial cells, an LDH release assay was conducted in human umbilical vein endothelial cells (HUVECs). Cytotoxicity was assessed based on the amount of lactate dehydrogenase (LDH) released due to cell membrane damage. The released LDH was quantified using an LDH assay kit (EZ-LDH1000; DoGenBio, Seoul, Korea) according to the manufacturer's protocol.
HUVECs (5×10^4 cells/well) were seeded in a 96-well polystyrene plate and incubated at 37 °C for 24 hours. LDH substrate was added to each well, followed by an additional incubation at 37 °C for 10 minutes. The plate was centrifuged at 600 g for 5 minutes. A 10-μL aliquot of the supernatant was transferred from the culture plate wells to an analysis plate. Subsequently, 100 μL of LDH reaction mixture reagent was added to the supernatant in each well of the analysis plate. After a 30-minute reaction, absorbance was measured at 450 nm using a microplate reader (Model 680; Bio-Rad). The cytotoxicity of 5-FU on HUVECs was determined based on the amount of LDH released.

[2] = tested on: thrombospondin-1 (TSP-1) in HUVEC; experiment: TSP-1 protein expression in HUVEC by Western blot; type: cell-based, human; details: prolonged exposure and higher drug concentrations of 5-FU, FIG. 3
Procedure: Thrombospondin (TSP) is a macromolecule with various functions, and among its isoforms, TSP-1 acts as an angiogenesis inhibitor. The following experiment was conducted to examine changes in TSP-1 expression in response to different concentrations of 5-FU.
Western blot analysis was conducted to confirm the expression of TSP-1 protein in the HUVEC (human umbilical vein endothelial cell) cell line.
HUVECs cultured in petri dishes were lysed using a buffer containing 50 mM Tris (pH 8.0), 150 mM NaCl, 1% Nonidet P-40, 0.5% sodium deoxycholate (SDC), 0.1% sodium dodecyl sulfate (SDS), and 1× protease inhibitor cocktail. The lysates were incubated on ice for 30 minutes, followed by centrifugation at 14,000 g for 10 minutes to collect the supernatant.
Protein quantification was performed using a bicinchoninic acid (BCA) protein assay kit (Pierce Chemical, Rockford, IL, USA). A total of 30 μg of protein was subjected to electrophoresis on a 10% SDS-polyacrylamide gel and subsequently transferred onto a nitrocellulose membrane. The membrane was blocked with blocking milk for 1 hour, then incubated with the same TSP-1 antibody used for immunostaining at room temperature for 1 hour. After three washes with Tris buffer containing 0.1% Tween 20 at 15-minute intervals, the membrane was incubated with a secondary antibody specific to the primary antibody at room temperature for 1 hour. […]

[3] = tested on: subcutaneous muscle layer; experiment: Pathological changes in the subcutaneous muscle layer after subcutaneous injection of 5-FU (H&E staining); type: in vivo, nude mice; design: key to pathological change score (degeneration, necrosis, inflammation, fibrosis): 0: absent; 1: mild; 2: moderate; 3: severe; details: 5 mg pH 8.4 5-FU, after 24 hours
Procedure: To observe pathological changes in the surrounding tissue after injecting 5 mg of pH 8.4 5-FU near the tumor, the drug was locally administered to nude mice. After 24 hours, tissues, including muscle layers, were collected and subjected to H&E staining to examine degeneration, necrosis, inflammation, and fibrosis in the muscle layer. The extent of each pathological change was scored as follows: 0=absent, 1=mild, 2=moderate, 3=severe, and the results are shown in FIG. 10A and FIG. 10b. FIG. 10A presents observations at 40× magnification, while FIG. 10b presents observations at 100× magnification.

[4] = tested on: VEGF; experiment: VEGF immunohistochemical staining of gastric tumor tissue after local injection of 5-FU in nude mice; type: in vivo
Procedure: (§1) To observe changes in vascular tissue within gastric tumor masses after local injection of 5-FU, immunohistochemical staining for CD31 and VEGF was performed.
(§2) For the control group, gastric tumor tissue was implanted in the dorsal region of nude mice, and when the tumor reached a size of 1 cm×1 cm, it was excised and used. For the 5-FU injection group, 5 mg of 5-FU was injected at the base of the tumor when the implanted tumor reached a size of 1 cm×1 cm. […] The immunohistochemical staining method was as follows.
(§3) To reduce endogenous peroxidase activity present in blood cells within the tissue, the slides were treated at room temperature with 3% H2O2 in methanol for 15 minutes. […] The slides were washed twice with TBST (Tris-buffered saline with 0.1% Tween® 20 Detergent) for 3 minutes each, followed by incubation at room temperature for 15 minutes with Detection Kit Reagent 1 (HRP Polymer-anti-mouse/rabbit IgG). […] For counterstaining, Harris hematoxylin was applied.
(§4) For result analysis, the proportion of the area stained for CD31-positive blood vessels and VEGF-positive cancer cells relative to the total tissue area was calculated, and a comparison was made between the control group and the 5-FU locally injected group.

[5] = tested on: CD31; experiment: CD31 immunohistochemical staining of gastric tumor tissue after local injection of 5-FU in nude mice; type: in vivo
Procedure: as §1, §2, §3, §4

[6] = tested on: patients; details: cited from earlier work
[7] = tested on: HUVEC; experiment: 5-FU cytotoxicity on HUVEC according to D-glucose or L-glucose concentration (MTS); type: cell-based, human
Procedure: An MTS cell proliferation assay was conducted to evaluate the cytotoxic effect of 5-FU on HUVEC according to D-glucose concentration under different pH conditions.
The cells were then incubated for an additional 24 hours in DMEM medium containing various concentrations of glucose.
To assess the cytotoxic effect of L-glucose on HUVEC, the experiment was conducted in the same manner as described in Example 2, Section 3.
To assess the cytotoxic effect of D-glucose or L-glucose on HUVEC, the experiment was conducted in the same manner as described in Example 2, Section 3.

In the case of `O=c1[nH]cc(F)c(=O)[nH]1` [5-FU, 5-fluorouracil], the “amount of released LDH” value [1] is reported as “significantly increased”, the TSP-1 expression levels [2] is reported as “increased expression levels” and the “pathological change score (degeneration, necrosis, inflammation, fibrosis)” value [3] is reported as 0. For the same compound, the “pathological changes in the subcutaneous muscle layer at the injection site” value [3] was “no pathological changes were observed”, the “Immuno-positive area (%)” value ([4]; VEGF, proportion of total tissue area, 5 mg 5-FU, one week after injection, control group 0.38) was 0.10% and the VEGF secretion levels ([4]; compared to control group) was “decreased”. The VEGF stained area ([4]; compared to control group, FIG. 7) was “appeared smaller”, the “distribution of necrotic tissue in tumor mass” value ([5]; 5 mg 5-FU, one week, compared to control group, FIG. 6) was “the distribution of necrotic tissue increased” and the “Immuno-positive area (%)” value ([5]; CD31, proportion of total tissue area, 5 mg 5-FU, one week after injection, control group 0.87) was 0.54%. For the same compound, the “stained area of CD31 and VEGF” value ([5]; CD31 and VEGF, compared to control group, Table 1) was “appeared smaller”, the “vascular distribution within the tumor mass” value ([5]; compared to control group) was “reduced” and the “stained area ratio of CD31” value ([5]; compared to control group, FIG. 6) was “lower”. The “myelosuppression and gastrointestinal toxicity” value ([6]; due to phosphorylation in the gastrointestinal tract, damage to normal cells) was “frequent myelosuppression and gastrointestinal toxicity”, the “adverse effects on intravenous administration” value ([6]; intravenous) was “associated with adverse effects such as thrombosis” and the “incidence of severe and potentially life-threatening cardiotoxicity” value ([6]; reported cases) was 1.5% to 18. For the same compound, the “cell viability upon addition of 5-FU” value ([7]; 5-FU added to L-glucose 5 mM and 25 mM, FIG. 14) was “further decreased cell viability” and the “cell viability upon addition of 5-FU” value ([7]; 5-FU under different pH conditions added to D-glucose 5 mM and 25 mM, FIG. 13) was “further decrease in cell viability”.
